According to ChEMBL document CHEMBL5120938, “Development of BET Inhibitors as Potential Treatments for Cancer: Optimization of Pharmacokinetic Properties” (ACS Med Chem Lett, 2022):

What was measured:
[1] = Inhibition of c-MYC expression in human JJN-3R cells measured after 4 hrs; assay type: functional, cell-based
[2] = Antiproliferative activity against human JJN-3R cells assessed as inhibition of cell proliferation measured after 72 hrs by MTS assay; assay type: functional, cell-based
[3] = Metabolic stability in alamethicin treated human liver microsomes assessed as half life pretreated for 5 mins followed by NADPH addition and measured up to 45 mins by LC-MS/MS analysis; assay type: ADME, Microsome; conditions: time < 50 min
[4] = Metabolic stability in alamethicin treated Sprague-Dawley rat liver microsomes assessed as half life pretreated for 5 mins followed by NADPH addition and measured up to 45 mins by LC-MS/MS analysis; assay type: ADME, Microsome; conditions: time < 50 min
[5] = Metabolic stability in alamethicin treated CD-1 mouse liver microsomes assessed as half life pretreated for 5 mins followed by NADPH addition and measured up to 45 mins by LC-MS/MS analysis; assay type: ADME, Microsome; conditions: time < 50 min
[6] = Metabolic stability in alamethicin treated Beagle dog liver microsomes assessed as half life pretreated for 5 mins followed by NADPH addition and measured up to 45 mins by LC-MS/MS analysis; assay type: ADME, Canis lupus familiaris, Microsome; conditions: time < 50 min
[7] = Metabolic stability in alamethicin treated cynomologus monkey liver microsomes assessed as half life pretreated for 5 mins followed by NADPH addition and measured up to 45 mins by LC-MS/MS analysis; assay type: ADME, Macaca fascicularis, Microsome; conditions: cynomolgus monkey, time < 50 min
[8] = Metabolic stability in alamethicin treated human liver microsomes assessed as half life pretreated for 5 mins followed by UDPGA addition and measured up to 45 mins by LC-MS/MS analysis; assay type: ADME, Microsome; conditions: time < 50 min
[9] = Metabolic stability in alamethicin treated Sprague-Dawley rat liver microsomes assessed as half life pretreated for 5 mins followed by UDPGA addition and measured up to 45 mins by LC-MS/MS analysis; assay type: ADME, Microsome; conditions: time < 50 min
[10] = Metabolic stability in alamethicin treated CD-1 mouse liver microsomes assessed as half life pretreated for 5 mins followed by UDPGA addition and measured up to 45 mins by LC-MS/MS analysis; assay type: ADME, Microsome; conditions: time < 50 min
[11] = Metabolic stability in alamethicin treated Beagle dog liver microsomes assessed as half life pretreated for 5 mins followed by UDPGA addition and measured up to 45 mins by LC-MS/MS analysis; assay type: ADME, Canis lupus familiaris, Microsome
[12] = Metabolic stability in alamethicin treated cynomologus monkey liver microsomes assessed as half life pretreated for 5 mins followed by UDPGA addition and measured up to 45 mins by LC-MS/MS analysis; assay type: ADME, Macaca fascicularis, Microsome; conditions: cynomolgus monkey, time < 50 min
[13] = Efflux ratio of apparent permeability across […] in human Caco-2 cells after 2 hrs by liquid scintillation counting analysis; assay type: ADME, cell-based; conditions: caco-2, 2 h
[14] = Drug metabolism in human hepatocytes assessed as glucuronidation of the compound at 5 uM measured after 1 hr by LC/UV/MS analysis; assay type: ADME, cell-based, Hepatocyte
[15] = Drug metabolism in human hepatocytes assessed as oxidative metabolite formation at 5 uM measured after 1 hr by LC/UV/MS analysis; assay type: ADME, cell-based, Hepatocyte
[16] = Volume of distribution in mouse at 5 mg/kg, po or 1.75 mg/kg, iv; assay type: ADME, organism-based; conditions: in vivo
[17] = Half life in mouse at 1.75 mg/kg, iv; assay type: ADME, organism-based; conditions: in vivo
[18] = AUC in mouse at 5 mg/kg, po; assay type: ADME, organism-based; design: dose 5 mg/kg, route po; conditions: in vivo
[19] = Volume of distribution in rat at 5 mg/kg, po or 1 mg/kg, iv; assay type: ADME, organism-based; conditions: in vivo
[20] = AUC in rat at 5 mg/kg, po; assay type: ADME, organism-based; design: dose 5 mg/kg, route po; conditions: in vivo
[21] = Volume of distribution in dog at 0.3 mg/kg, po or 0.1 mg/kg, iv; assay type: ADME, organism-based, Canis lupus familiaris; conditions: in vivo
[22] = Oral bioavailability in dog at 0.3 mg/kg; assay type: ADME, organism-based, Canis lupus familiaris; conditions: in vivo
[23] = AUC in dog at 0.3 mg/kg, po; assay type: ADME, organism-based, Canis lupus familiaris; design: dose 0.3 mg/kg, route po; conditions: in vivo
[24] = Volume of distribution in cynomologus monkey at 0.3 mg/kg, po or 0.1 mg/kg, iv; assay type: ADME, organism-based, Macaca fascicularis; conditions: cynomolgus monkey, in vivo
[25] = Half life in cynomologus monkey at 0.1 mg/kg, iv; assay type: ADME, organism-based, Macaca fascicularis; conditions: cynomolgus monkey, in vivo
[26] = Oral bioavailability in cynomologus monkey at 0.3 mg/kg; assay type: ADME, organism-based, Macaca fascicularis; conditions: cynomolgus monkey, in vivo
[27] = AUC in cynomologus monkey at 0.3 mg/kg, po; assay type: ADME, organism-based, Macaca fascicularis; design: dose 0.3 mg/kg, route po; conditions: cynomolgus monkey, in vivo
[28] = Antitumor activity against human BR1077F cells xenografted in mouse assessed as tumor growth inhibition at 3 mg/kg, po QD treated as 5 days on and 2 days off regimen for 2 weeks starting from 26 days post tumor implantation; assay type: functional; conditions: 336 h, read-out: TGI
[29] = AUC in mouse xenografted with human BR1077F cells at 3 mg/kg, po QD treated as 5 days on and 2 days off regimen for 2 weeks starting from 26 days post tumor implantation; assay type: ADME, organism-based; design: time 2 weeks, dose 3 mg/kg, route po; conditions: in vivo
[30] = Volume of distribution in mouse at 3 mg/kg, po or 1 mg/kg, iv; assay type: ADME, organism-based; conditions: in vivo
[31] = Half life in mouse at 1 mg/kg, iv; assay type: ADME, organism-based; conditions: in vivo
[32] = Oral bioavailability in mouse at 3 mg/kg; assay type: ADME, organism-based; conditions: in vivo
[33] = AUC in mouse at 3 mg/kg, po; assay type: ADME, organism-based; design: dose 3 mg/kg, route po; conditions: in vivo
[34] = Half life in rat at 1 mg/kg, iv; assay type: ADME, organism-based; conditions: in vivo
[35] = Oral bioavailability in rat at 5 mg/kg; assay type: ADME, organism-based; conditions: in vivo
[36] = Half life in dog at 0.1 mg/kg, iv; assay type: ADME, organism-based, Canis lupus familiaris; conditions: in vivo
[37] = Antitumor activity against human BR1077F cells xenografted in mouse assessed as tumor growth inhibition at 2 mg/kg, po QD treated as 5 days on and 2 days off regimen for 2 weeks starting from 26 days post tumor implantation; assay type: functional; conditions: 336 h, read-out: TGI
[38] = AUC in mouse xenografted with human BR1077F cells at 2 mg/kg, po QD treated as 5 days on and 2 days off regimen for 2 weeks starting from 26 days post tumor implantation; assay type: ADME, organism-based; design: time 2 weeks, dose 2 mg/kg, route po; conditions: in vivo
[39] = biological target: Bromodomain-containing protein 2 (Homo sapiens, UniProt P25440); test: Inhibition of BRD2 (unknown origin)
Sequence of Bromodomain-containing protein 2 (P25440 whole entry): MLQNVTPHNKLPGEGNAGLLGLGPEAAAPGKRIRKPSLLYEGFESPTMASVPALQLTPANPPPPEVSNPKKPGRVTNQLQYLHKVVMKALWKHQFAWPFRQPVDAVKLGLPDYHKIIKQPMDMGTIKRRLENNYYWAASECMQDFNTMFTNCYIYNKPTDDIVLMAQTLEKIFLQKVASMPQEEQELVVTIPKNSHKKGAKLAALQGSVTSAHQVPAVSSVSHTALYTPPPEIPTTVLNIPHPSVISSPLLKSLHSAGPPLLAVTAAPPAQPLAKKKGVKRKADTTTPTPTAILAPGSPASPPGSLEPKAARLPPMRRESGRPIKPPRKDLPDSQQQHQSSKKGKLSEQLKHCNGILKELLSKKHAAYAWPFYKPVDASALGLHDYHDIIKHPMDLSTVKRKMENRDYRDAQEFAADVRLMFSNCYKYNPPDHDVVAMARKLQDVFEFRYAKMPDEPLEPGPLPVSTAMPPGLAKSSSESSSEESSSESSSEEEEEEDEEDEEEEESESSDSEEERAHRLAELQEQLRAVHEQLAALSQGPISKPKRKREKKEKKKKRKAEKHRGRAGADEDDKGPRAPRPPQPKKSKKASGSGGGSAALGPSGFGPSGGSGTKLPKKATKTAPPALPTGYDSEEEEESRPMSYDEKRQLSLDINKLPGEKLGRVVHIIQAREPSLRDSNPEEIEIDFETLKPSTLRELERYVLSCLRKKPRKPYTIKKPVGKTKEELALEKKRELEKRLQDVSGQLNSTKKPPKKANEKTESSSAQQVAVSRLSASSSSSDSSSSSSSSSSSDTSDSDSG

[40] = biological target: Bromodomain-containing protein 3 (Homo sapiens, UniProt Q15059); test: Inhibition of BRD3 (unknown origin)
Sequence of Bromodomain-containing protein 3 (Q15059 whole entry): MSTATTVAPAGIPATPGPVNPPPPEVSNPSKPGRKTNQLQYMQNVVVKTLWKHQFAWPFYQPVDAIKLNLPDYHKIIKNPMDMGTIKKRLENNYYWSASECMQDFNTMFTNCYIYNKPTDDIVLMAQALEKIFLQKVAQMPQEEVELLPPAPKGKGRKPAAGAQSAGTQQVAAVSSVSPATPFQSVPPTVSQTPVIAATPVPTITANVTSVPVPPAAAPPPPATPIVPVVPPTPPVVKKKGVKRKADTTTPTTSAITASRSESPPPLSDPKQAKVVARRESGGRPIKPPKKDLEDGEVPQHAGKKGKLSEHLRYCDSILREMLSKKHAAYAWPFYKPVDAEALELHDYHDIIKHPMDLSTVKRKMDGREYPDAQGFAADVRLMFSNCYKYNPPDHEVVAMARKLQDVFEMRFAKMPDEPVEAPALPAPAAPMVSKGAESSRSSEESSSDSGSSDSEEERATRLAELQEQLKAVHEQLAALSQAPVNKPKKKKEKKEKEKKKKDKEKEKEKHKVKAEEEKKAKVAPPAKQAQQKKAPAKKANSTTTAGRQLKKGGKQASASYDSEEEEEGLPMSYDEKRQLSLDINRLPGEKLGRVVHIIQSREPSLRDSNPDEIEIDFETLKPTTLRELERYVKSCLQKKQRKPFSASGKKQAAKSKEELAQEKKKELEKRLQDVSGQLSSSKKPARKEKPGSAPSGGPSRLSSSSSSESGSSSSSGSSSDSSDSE

[41] = Drug metabolism in human hepatocytes assessed as glucuronides formation at 5 uM measured after 2 hrs by LC/UV/MS analysis; assay type: ADME, cell-based, Hepatocyte

For `Cc1nnn(C)c1-c1cnc2c3ccc(C(C)(C)O)cc3n([C@H](c3ccccc3)C3CCOCC3)c2c1` [EZOBRESIB], the IC50 [1] was 0.7 nM, the IC50 [2] was 3.6 nM and the half-life [3] was 0.55 h. The half-life [4] was 0.6 h, the half-life [5] was 0.4 h and the half-life [6] was 0.333 h. It also gave a half-life [7] of 0.167 h, a half-life [8] of 1.92 h and a half-life [9] of 1.02 h. The half-life [10] was 2 h, the half-life ([11]; Beagle, liver microsomes, time < 50 min) was 2 h and the half-life [12] was 2 h. For the same compound, the Ratio [13] was 2.6, the Drug metabolism [14] was “Metabolite_Detected” and the Drug metabolism [15] was “Metabolite_Detected”. For the same compound, the Vd [16] was 1.9 L/kg, the half-life [17] was 1.9 h and the AUC [18] was 18 µM·h. The Vd [19] was 4.3 L/kg, the AUC [20] was 2 µM·h and the Vd [21] was 5.3 L/kg. The bioavailability [22] was 59%, the AUC [23] was 0.41 µM·h and the Vd [24] was 4.2 L/kg. It also gave a half-life [25] of 2 h, a bioavailability [26] of 16% and an AUC [27] of 0.085 µM·h. It also gave an inhibition in vivo at 3 mg/kg [28] of 99% and an AUC at 336 h [29] of 2.6 µM·h.
With `[2H]C([2H])([2H])c1nnn(C)c1-c1cnc2c3cc(F)c(C(C)(C)O)cc3n([C@H](c3ccccc3)C3CCOCC3)c2c1` the IC50 [1] was 2 nM, the IC50 [2] was 6 nM and the half-life [3] was 0.867 h. It also gave a half-life [4] of 0.767 h, a half-life [5] of 0.683 h and a half-life [6] of 0.533 h. For the same compound, the half-life [7] was 0.167 h, the half-life [8] was 2 h and the half-life [9] was 2 h. For the same compound, the half-life [10] was 2 h, the t1/2 ([11]; microsomes, 50 min) was 2 h and the half-life [12] was 2 h. For the same compound, the Ratio [13] was 1.8, the Vd [30] was 1.4 L/kg and the half-life [31] was 3.4 h. The bioavailability [32] was 100%, the AUC [33] was 25 µM·h and the Vd [19] was 2.9 L/kg. For the same compound, the half-life [34] was 4.1 h, the bioavailability [35] was 74% and the AUC [20] was 6.6 µM·h. The Vd [21] was 5.8 L/kg, the half-life [36] was 7.6 h and the bioavailability [22] was 73%. It also gave an AUC [23] of 0.55 µM·h, a Vd [24] of 1.3 L/kg and a half-life [25] of 4 h. It also gave a bioavailability [26] of 85%, an AUC [27] of 1.9 µM·h and an inhibition in vivo at 2 mg/kg [37] of 88%. For the same compound, the AUC at 336 h [38] was 4.8 µM·h, the IC50 [39] was 0.2 nM and the IC50 [40] was 1.6 nM. For the same compound, the Drug metabolism [41] was “Metabolite_Notdetected”.
